Experimental findings from ChEMBL document CHEMBL2073748, “Na(+)-dependent carnitine transport by organic cation transporter (OCTN2): its pharmacological and toxicological relevance” (J Pharmacol Exp Ther, 1999) are described below.

Broadly, the Km is the substrate concentration at which the rate is half of its maximum.

Data set [1] concerns the target T1, Organic cation/carnitine transporter 2 (Homo sapiens, UniProt O76082).
T1 sequence (O76082 whole entry): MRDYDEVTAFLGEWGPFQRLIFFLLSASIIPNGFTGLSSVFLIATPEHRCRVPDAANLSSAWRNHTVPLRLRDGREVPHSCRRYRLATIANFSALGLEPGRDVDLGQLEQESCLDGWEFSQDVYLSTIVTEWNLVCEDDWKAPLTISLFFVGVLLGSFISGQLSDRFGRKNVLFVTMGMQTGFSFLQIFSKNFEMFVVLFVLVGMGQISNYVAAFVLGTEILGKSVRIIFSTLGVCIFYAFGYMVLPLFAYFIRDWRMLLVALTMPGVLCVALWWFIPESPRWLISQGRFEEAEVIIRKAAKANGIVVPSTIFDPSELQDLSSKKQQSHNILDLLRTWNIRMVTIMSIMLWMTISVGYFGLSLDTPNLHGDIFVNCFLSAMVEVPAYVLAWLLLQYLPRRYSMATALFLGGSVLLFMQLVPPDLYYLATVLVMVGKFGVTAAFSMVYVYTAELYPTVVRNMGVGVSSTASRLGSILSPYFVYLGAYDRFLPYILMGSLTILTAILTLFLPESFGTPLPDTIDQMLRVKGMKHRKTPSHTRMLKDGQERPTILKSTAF
The data set is described as follows: TP_TRANSPORTER: inhibition of Carnitine uptake (Carnitine: 0.010? uM, Furosemide: 500 uM) in OCTN2-expressing HEK293 cells. The class given is functional, cell-based. Particulars: hek293, 500 µM.

The target of data set [2] is T2, OCTN2 (organic cation/carnitine transporter 2) (Homo sapiens, UniProt O76082).
T2 sequence (O76082 whole entry): T1 sequence (O76082 whole entry)
The data set is described as follows: TP_TRANSPORTER: inhibition of Carnitine uptake (Carnitine: 0.010? uM, GPFX: 500 uM) in OCTN2-expressing HEK293 cells. The conditions noted are these: HEK293 cells that express OCTN2, probe Carnitine, read-out: Activity. The class given is functional, cell-based. Further details: scale not given: the % may be the effect or the level left.

For data set [3], the target named is T2, OCTN2 (organic cation/carnitine transporter 2). The data set is described as follows: TP_TRANSPORTER: inhibition of Carnitine uptake (Carnitine: 0.010? uM, LFLX: 500 uM) in OCTN2-expressing HEK293 cells. The class given is functional, cell-based. Set-up: scale not given: the % may be the effect or the level left. Particulars: HEK293 cells that express OCTN2, probe Carnitine, read-out: Activity.

The target is the same in data set [4]. Put plainly: in vitro. Particulars: HEK293 cells that express OCTN2, probe Carnitine.
For data set [5] the target is unchanged. Put plainly: TP_TRANSPORTER: inhibition of Carnitine uptake (Carnitine: 0.010? uM, OFLX: 500 uM) in OCTN2-expressing HEK293 cells. The class given is functional, cell-based. Set-up: scale not given: the % may be the effect or the level left. Particulars: HEK293 cells that express OCTN2, probe Carnitine, read-out: Activity.
Data set [6] shares this target. The data set is described as follows: TP_TRANSPORTER: inhibition of Carnitine uptake (Carnitine: 0.010? uM, Probenecid: 500 uM) in OCTN2-expressing HEK293 cells. Further details: scale not given: the % may be the effect or the level left. Particulars: HEK293 cells that express OCTN2, probe Carnitine, read-out: Activity. Type of data set: functional, cell-based.
For data set [7] the target is unchanged. Put plainly: TP_TRANSPORTER: inhibition of Carnitine uptake (Carnitine: 0.010? uM, Procainamide: 500 uM) in OCTN2-expressing HEK293 cells. Type of data set: functional, cell-based. Further details: scale not given: the % may be the effect or the level left. The conditions noted are these: HEK293 cells that express OCTN2, probe Carnitine, read-out: Activity.

Data set [8] has as its target T1, Organic cation/carnitine transporter 2. Put plainly: (§1) TP_TRANSPORTER: uptake in OCTN2-expressing HEK293 cells. The class given is functional, cell-based.
In data set [9] the target is T2, OCTN2 (organic cation/carnitine transporter 2). Put plainly: TP_TRANSPORTER: inhibition of Carnitine uptake (Carnitine: 0.010? uM, Pyrilamine: 500 uM) in OCTN2-expressing HEK293 cells. The class given is functional, cell-based. Particulars: HEK293 cells that express OCTN2, probe Carnitine, read-out: Activity. Set-up: scale not given: the % may be the effect or the level left.

Data set [10] has the same target. The data set is described as follows: TP_TRANSPORTER: inhibition of Carnitine uptake (Carnitine: 0.010? uM, Quinidine: 500 uM) in OCTN2-expressing HEK293 cells. The class given is functional, cell-based. Set-up: scale not given: the % may be the effect or the level left. Particulars: HEK293 cells that express OCTN2, probe Carnitine, read-out: Activity.
Data set [11] shares this target. The data set is described as follows: TP_TRANSPORTER: inhibition of Carnitine uptake (Carnitine: 0.010? uM, Quinine: 500 uM) in OCTN2-expressing HEK293 cells. The class given is functional, cell-based. Set-up: scale not given: the % may be the effect or the level left. The conditions noted are these: HEK293 cells that express OCTN2, probe Carnitine, read-out: Activity.

For data set [12] the target is unchanged. Put plainly: in vitro. The conditions noted are these: HEK293 cells that express OCTN2, probe Carnitine. The source holds these as a separate data set.
For data set [13] the target is unchanged. Put plainly: TP_TRANSPORTER: inhibition of Carnitine uptake (Carnitine: 0.010? uM, Trimethyllysine: 500 uM) in OCTN2-expressing HEK293 cells. The class given is functional, cell-based. Set-up: scale not given: the % may be the effect or the level left. Particulars: HEK293 cells that express OCTN2, probe Carnitine, read-out: Activity.
Data set [14] shares this target. The data set is described as follows: TP_TRANSPORTER: inhibition of Carnitine uptake (Carnitine: 0.010? uM, Valproic acid: 500 uM) in OCTN2-expressing HEK293 cells. The class given is functional, cell-based. Further details: scale not given: the % may be the effect or the level left. Particulars: HEK293 cells that express OCTN2, probe Carnitine, read-out: Activity.

For data set [15] the target is unchanged. Put plainly: TP_TRANSPORTER: inhibition of Carnitine uptake (Carnitine: 0.010? uM, Verapamil: 500 uM) in OCTN2-expressing HEK293 cells. Further details: scale not given: the % may be the effect or the level left. Type of data set: functional, cell-based. Particulars: HEK293 cells that express OCTN2, probe Carnitine, read-out: Activity.
For data set [16], the target named is T1, Organic cation/carnitine transporter 2. Put plainly: TP_TRANSPORTER: inhibition of Carnitine uptake (Carnitine: 0.010? uM, AZT: 500 uM) in OCTN2-expressing HEK293 cells. Type of data set: functional, cell-based. Particulars: hek293, 500 µM.
Substrate in data set [17]: CC(=O)O[C@H](CC(=O)[O-])C[N+](C)(C)C
The description is as §1. The class given is functional, cell-based.

Substrate in data set [18]: C[N+](C)(C)CC(O)CC(=O)[O-]
Put plainly: TP_TRANSPORTER: uptake, D-Carnitine in OCTN2-expressing HEK293 cells. The class given is functional, cell-based.

As to `NS(=O)(=O)c1cc(C(=O)O)c(NCc2ccco2)cc1Cl` [FUROSEMIDE], the Activity result in data set [1] was “is not an inhibitor [-]”.
Consider `Cc1c(F)c(N2CCNC(C)C2)cc2c1c(=O)c(C(=O)O)cn2C1CC1` (configuration not stated) [GREPAFLOXACIN], for which the activity at 500 µM in data set [2] amounted to 68.6%.
In the case of `CCn1cc(C(=O)O)c(=O)c2cc(F)c(N3CCNC(C)C3)c(F)c21` (configuration not stated) [LOMEFLOXACIN], the activity at 500 µM in data set [3] is 88.6%.
As to `CN1CCC[C@H]1c1cccnc1` [NICOTINE], the activity at 500 µM in data set [4] worked out at 82.6%.
As to `CC1COc2c(N3CCN(C)CC3)c(F)cc3c(=O)c(C(=O)O)cn1c23` (configuration not stated) [OFLOXACIN], in [5], the activity at 500 µM is 76.8%.
Regarding `CCCN(CCC)S(=O)(=O)c1ccc(C(=O)O)cc1` [PROBENECID], in data set [6], the activity at 500 µM amounted to 77.4%.
`CCN(CC)CCNC(=O)c1ccc(N)cc1` [PROCAINAMIDE]: the activity at 500 µM in data set [7] amounted to 65.8%.
For the molecule `COc1ccc(CN(CCN(C)C)c2ccccn2)cc1` [PYRILAMINE], the Activity result in data set [8] is “substrate [+]”. Moreover, in data set [9], the activity at 500 µM came to 38.6%.
As for `C=C[C@H]1C[N@@]2CC[C@H]1C[C@@H]2[C@@H](O)c1ccnc2ccc(OC)cc12` [QUINIDINE], the Activity entry in data set [8] is “substrate [+]”. The activity at 500 µM in [10] turned out to be 9.1%.
As for `C=C[C@H]1C[N@@]2CC[C@H]1C[C@H]2[C@H](O)c1ccnc2ccc(OC)cc12` [QUININE], in data set [11], the activity at 500 µM was found to be 7.1%.
Consider `CC[N+](CC)(CC)CC` [TETRYLAMMONIUM], for which, in data set [8], the Activity result is “substrate [+]”. This molecule returned an activity at 500 µM in [12] of 53.6%.
For the molecule `C[N+](C)(C)CCCC[C@H](N)C(=O)O` [TRIMETHYLLYSINE], the activity at 500 µM in data set [13] is 69%.
For the molecule `CCCC(CCC)C(=O)O` [VALPROIC ACID], the Activity result in data set [8] was “substrate [+]”. In addition, the activity at 500 µM in [14] is 82.3%.
For `COc1ccc(CCN(C)CCCC(C#N)(c2ccc(OC)c(OC)c2)C(C)C)cc1OC` (configuration not stated) [VERAPAMIL], the Activity result in data set [8] is “substrate [+]”. In addition, the activity at 500 µM in [15] was 2.4%.
Take `Cc1cn([C@H]2C[C@H](N=[N+]=[N-])[C@@H](CO)O2)c(=O)[nH]c1=O` [ZIDOVUDINE]: in [16], the Activity result was “is not an inhibitor [-]”.

B1: Organic cation/carnitine transporter 2 (Homo sapiens) (protein)
chain: T1 sequence (O76082 whole entry)
Regarding B1, the Michaelis constant (Km) is 8.5 µM in data set [17] and 10.9 µM in [18].
